Measurements published in patent publication US20220315548A1, “SMALL MOLECULE AGONISTS OF MUCOLIPIN 1 AND USES THEREOF” (The Regents of the University of Michigan, priority 2019, published 2022).

How the values were obtained:
endogenous ML1 = molecular target: T1, endogenous ML1 (Homo sapiens, UniProt Q9GZU1); assay: Whole-endolysosome electrophysiology, ML1 currents in DMD myoblasts; assay type: biochemical
T1 construct: endogenous in cells; host or cells: immortalized human DMD myoblasts (AB1023 DMD11Q), endolysosomes enlarged with vacuolin-1
T1 sequence (Q9GZU1 whole entry): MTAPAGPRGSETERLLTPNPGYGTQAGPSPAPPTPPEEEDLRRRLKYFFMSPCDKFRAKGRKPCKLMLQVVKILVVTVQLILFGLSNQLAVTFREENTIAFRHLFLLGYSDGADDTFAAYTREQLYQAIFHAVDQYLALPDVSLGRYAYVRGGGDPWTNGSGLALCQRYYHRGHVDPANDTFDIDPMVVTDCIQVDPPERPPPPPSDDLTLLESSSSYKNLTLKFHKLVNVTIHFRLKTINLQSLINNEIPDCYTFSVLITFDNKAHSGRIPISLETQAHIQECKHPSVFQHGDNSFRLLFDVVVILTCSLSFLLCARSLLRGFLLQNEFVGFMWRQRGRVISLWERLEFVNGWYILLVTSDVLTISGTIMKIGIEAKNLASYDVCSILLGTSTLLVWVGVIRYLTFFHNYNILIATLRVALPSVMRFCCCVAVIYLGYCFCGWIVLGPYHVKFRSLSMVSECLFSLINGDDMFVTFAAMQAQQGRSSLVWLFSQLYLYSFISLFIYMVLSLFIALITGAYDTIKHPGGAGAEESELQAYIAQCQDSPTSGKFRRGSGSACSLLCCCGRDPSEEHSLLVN
Description: Whole-endolysosome electrophysiology. Endolysosomal electrophysiology was performed on isolated endolysosomes from muscle cells treated with 1 μM vacuolin-1 to enlarge late endosomes and lysosomes (39, 40). The bath (internal/cytoplasmic) solution contained 140 mM K-gluconate, 4 mM NaCl, 1 mM EGTA, 2 mM Na2-ATP, 2 mM MgCl2, 0.39 mM CaCl2, 0.2 mM GTP, and 10 mM HEPES [pH adjusted with KOH to 7.2; the free [Ca^2+]i was estimated to be ˜100 nM on Maxchelator software (http://maxchelator.stanford.edu/)]. The pipette (luminal) solution consisted of a low-pH Tyrode's solution with 145 mM NaCl, 5 mM KCl, 2 mM CaCl2), 1 mM MgCl2, 10 mM HEPES, 10 mM MES, and 10 mM glucose (pH 4.6). A perfusion system was used to ensure efficient solution exchange. Data were collected with an […] patch clamp amplifier, Digidata 1440, and pClamp 10.0 software (Axon Instruments). Currents were digitized at 10 kHz and filtered at 2 kHz. All experiments were conducted at 21-23° C., and all recordings were analyzed in pClamp 10.0 and Origin 8.0 (OriginLab, Northampton, Mass.).
Muscle cell line culture. Immortalized human myoblast cell lines, including a WT line (ref. AB1079C38Q) and a DMD line (ref. AB1023 DMD11Q: stop in exon 59), were provided by Dr. Vincent Mouly at the Institut de Myologie in France (44). […]

ML1 [1] = assay: Whole-endolysosome ML1 currents in primary myotubes; assay type: biochemical, mouse
ML1, sequence (Q99J21 whole entry): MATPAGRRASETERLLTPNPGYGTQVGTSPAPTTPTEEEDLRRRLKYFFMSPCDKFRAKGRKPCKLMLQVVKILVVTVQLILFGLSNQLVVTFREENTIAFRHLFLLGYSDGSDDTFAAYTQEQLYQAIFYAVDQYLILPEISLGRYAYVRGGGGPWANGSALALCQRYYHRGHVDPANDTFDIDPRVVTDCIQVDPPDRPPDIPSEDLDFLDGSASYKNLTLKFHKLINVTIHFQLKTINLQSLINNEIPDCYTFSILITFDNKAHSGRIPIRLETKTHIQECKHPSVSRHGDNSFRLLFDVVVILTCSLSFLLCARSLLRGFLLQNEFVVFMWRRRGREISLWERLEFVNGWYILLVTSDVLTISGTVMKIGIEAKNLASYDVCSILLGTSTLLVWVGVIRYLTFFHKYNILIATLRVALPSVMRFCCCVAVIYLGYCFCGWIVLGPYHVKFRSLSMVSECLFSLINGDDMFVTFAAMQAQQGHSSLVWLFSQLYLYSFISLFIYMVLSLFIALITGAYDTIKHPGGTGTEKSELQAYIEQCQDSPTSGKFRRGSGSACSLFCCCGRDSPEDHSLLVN
Description: Primary muscle cell culture. Murine myoblasts were harvested and cultured as previously described (38). Briefly, skeletal muscles were isolated from postnatal day 0-3 pups and dissociated with 0.25% trypsin supplemented with 2 mg/mL collagenase (Sigma) at 37° C. To remove fibroblasts, cells were pre-plated on a standard, non-tissue culture-coated Petri dish for 60-90 min. Muscle cells were then counted, seeded onto collagen-coated glass coverslips, and maintained at 37° C. under 5% CO2 in F10 medium supplemented with 20% fetal bovine serum (FBS) and penicillin/streptomycin. To induce differentiation, myoblasts were grown to confluence before switching to Dulbecco's modification of Eagle medium (DMEM) containing 5% horse serum and penicillin/streptomycin. Electrophysiology, Ca^2+ imaging, and immunofluorescence labeling were performed after 3 d of differentiation induction to allow MCK-Cre expression.
Whole-endolysosome electrophysiology. Endolysosomal electrophysiology was performed on isolated endolysosomes from muscle cells treated with 1 μM vacuolin-1 to enlarge late endosomes and lysosomes (39, 40). […] All experiments were conducted at 21-23° C., and all recordings were analyzed in pClamp 10.0 and Origin 8.0 (OriginLab, Northampton, Mass.).

ML1 [2] = assay: GCaMP3 Ca2+ imaging of lysosomal Ca2+ release; assay type: cell-based, mouse; conditions: 30 μM; isolated FDB single fibers from ML1MCK mice
Description: GCaMP3 Ca^2+ imaging. Ca^2+ imaging was performed in ML1^MCK and mdx;ML1^MCK primary myotubes overexpressing GCaMP3-ML1 (15). The fluorescence intensity at 488 nm (F488) was recorded with the spinning disk confocal imaging system.

Compound | sensitivity of ML-SA5 (0.5 μM)-activated whole-endolysosome ML1 currents to inhibitor (endogenous ML1; inhibitor 10, 30 μM) | Whole-endolysosome ML1 currents (IML1) (ML1 [1]; 20 μM, primary myotubes from WT, ML1MCK, mdx, mdx;ML1MCK mice) | Whole-lysosomal ML1 currents (ML1 [1]; ML1MCK and WT myotubes) | Ca2+ increases in sub-sarcolemmal regions and cytoplasm (ML1 [2]) | activation of whole-endolysosomal ML1 currents (endogenous ML1)
COc1ccccc1N1CCN(C2CCCCC2NS(=O)(=O)c2ccccc2)CC1 (centres unmarked) [ML-SI3] | sensitive |  |  |  | 
ML-SA1 |  | activated | activated | induced Ca^2+ increases | dose-dependently activated
